Results published in patent US20090018134A1, “Compounds - 945” (AstraZeneca AB, priority 2007, published 2009).

Target: T1, mTOR (Homo sapiens, UniProt P42345)
T1 construct: FLAG; made in house
Experiment: In Vitro mTOR Kinase Assay (Echo), Test (a)(ii)
Assay type: biochemical
Conditions: table of enzyme assay Test (a)(ii); read-out: Test (a)(ii) IC50
How it was run: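 FLAG-tagged human mTOR truncation (residues 1362-2549) expressed in HEK293 cells and FLAG-purified. Compounds dispensed acoustically, reaction 2 h at room temperature, stopped with EDTA. Phosphorylation of biotinylated peptide detected by AlphaScreen with anti-p70 S6K (T389) antibody overnight; IC50 reported.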

T1 sequence (P42345 1362-2549): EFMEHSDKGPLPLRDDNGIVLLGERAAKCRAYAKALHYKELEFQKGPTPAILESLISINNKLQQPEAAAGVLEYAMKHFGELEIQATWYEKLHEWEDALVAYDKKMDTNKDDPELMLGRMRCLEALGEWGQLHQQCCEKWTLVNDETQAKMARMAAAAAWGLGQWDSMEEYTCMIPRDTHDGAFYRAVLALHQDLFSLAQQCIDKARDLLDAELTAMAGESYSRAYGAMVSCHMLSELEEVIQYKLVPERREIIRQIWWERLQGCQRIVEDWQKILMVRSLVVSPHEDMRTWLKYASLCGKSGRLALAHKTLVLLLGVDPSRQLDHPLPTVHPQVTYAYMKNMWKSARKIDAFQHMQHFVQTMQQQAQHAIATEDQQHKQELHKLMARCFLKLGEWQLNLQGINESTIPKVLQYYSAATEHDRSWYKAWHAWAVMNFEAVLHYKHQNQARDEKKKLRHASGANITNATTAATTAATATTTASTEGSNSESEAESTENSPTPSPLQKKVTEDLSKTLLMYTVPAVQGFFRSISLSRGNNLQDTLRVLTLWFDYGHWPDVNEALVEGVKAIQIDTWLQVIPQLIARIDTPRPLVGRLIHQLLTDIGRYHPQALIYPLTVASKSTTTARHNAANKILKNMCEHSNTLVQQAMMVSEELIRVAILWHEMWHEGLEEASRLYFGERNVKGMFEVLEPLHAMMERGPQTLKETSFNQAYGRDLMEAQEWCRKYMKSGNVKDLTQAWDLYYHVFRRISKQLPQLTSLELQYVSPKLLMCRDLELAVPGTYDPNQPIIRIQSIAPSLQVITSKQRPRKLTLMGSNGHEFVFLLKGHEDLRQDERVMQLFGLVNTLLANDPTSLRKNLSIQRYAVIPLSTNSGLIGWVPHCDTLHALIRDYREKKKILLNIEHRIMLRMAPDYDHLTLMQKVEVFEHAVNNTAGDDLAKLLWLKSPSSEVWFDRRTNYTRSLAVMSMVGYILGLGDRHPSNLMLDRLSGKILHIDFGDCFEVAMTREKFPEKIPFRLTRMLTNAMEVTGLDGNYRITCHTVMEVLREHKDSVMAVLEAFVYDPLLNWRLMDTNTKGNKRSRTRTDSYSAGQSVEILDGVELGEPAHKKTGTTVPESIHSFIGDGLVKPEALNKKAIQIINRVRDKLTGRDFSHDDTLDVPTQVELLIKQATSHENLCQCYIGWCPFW

Compound	IC50 [nM]
C[C@H]1COCCN1c1cc(C2(S(=O)(=O)C3CC3)CC2)nc(-c2ccc(NC(=S)NC3CC3)cc2)n1 [Example 37b, 3-cyclopropyl-1-[4-[4-(1-cyclopropylsulfonylcyclopropyl)-6-[(3S)-3-methylmorpholin-4-yl]pyrimidin-2-yl]phenyl]thiourea]	12.4
C[C@H]1COCCN1c1cc(C2(S(=O)(=O)CCCO)CC2)nc(-c2ccc(NC(=S)NC3CCC3)cc2)n1 [Example 37d, 3-cyclobutyl-1-[4-[4-[1-(3-hydroxypropylsulfonyl)cyclopro-pyl]-6-[(3S)-3-methylmorpholin-4-yl]pyrimidin-2-yl]phenyl]thiourea]	4.39
C[C@H]1COCCN1c1cc(C2(S(=O)(=O)CCCO)CC2)nc(-c2ccc(NC(=S)NCCC#N)cc2)n1 [Example 37e, 3-(2-cyanoethyl)-1-[4-[4-[1-(3-hydroxypropylsulfonyl)cyclopro-pyl]-6-[(3S)-3-methylmorpholin-4-yl]pyrimidin-2-yl]phenyl]thiourea]	4.9
C[C@H]1COCCN1c1cc(C2(S(=O)(=O)CCCO)CC2)nc(-c2ccc(NC(=S)Nc3cnn(C)c3)cc2)n1 [Example 37j, 1-[4-[4-[1-(3-hydroxypropylsulfonyl)cyclopro-pyl]-6-[(3S)-3-methylmorpholin-4-yl]pyrimidin-2-yl]phenyl]-3-(1-methylpyrazol-4-yl)thiourea]	30.9
CCCNC(=S)Nc1ccc(-c2nc(N3CCOC[C@@H]3C)cc(C3(S(=O)(=O)CCCO)CC3)n2)cc1 [Example 37l, 3-[4-[4-[1-(3-hydroxypropylsulfonyl)cyclopro-pyl]-6-[(3S)-3-methylmorpholin-4-yl]pyrimidin-2-yl]phenyl]-1-propylthiourea]	32
C[C@H]1COCCN1c1cc(C2(S(C)(=O)=O)CC2)nc(-c2ccc(NC(=S)NCCCO)cc2)n1 [Example 37m, 3-(3-hydroxypropyl)-1-[4-[4-[(3S)-3-methylmorpholin-4-yl]-6-(1-methylsulfonylcyclopropyl)pyri-midin-2-yl]phenyl]thiourea]	50.6
C[C@H]1COCCN1c1cc(C2(S(=O)(=O)c3ccc(F)cc3)CC2)nc(-c2ccc(NC(=S)NC3CC3)cc2)n1 [Example 37t, 3-cyclopropyl-1-[4-[4-[1-(4-fluorophenyl)sulfonylcyclopropyl]-6-[(3S)-3-methylmorpholin-4-yl]pyrimidin-2-yl]phenyl]thiourea]	8.89
C[C@H]1COCCN1c1cc(C2(S(=O)(=O)c3ccc(F)cc3)CC2)nc(-c2ccc(NC(=S)NCCO)cc2)n1 [Example 37u, 1-[4-[4-[1-(4-fluorophenyl)sulfonylcyclopropyl]-6-[(3S)-3-methylmorpholin-4-yl]pyrimidin-2-yl]phenyl]-3-(2-hydroxyethyl)thiourea]	0.395
C[C@H]1COCCN1c1cc(C2(S(=O)(=O)c3ccccc3)CC2)nc(-c2ccc(NC(=S)NC3CC3)cc2)n1 [Example 37v, 1-[4-[4-[1-(benzenesulfonyl)cyclopropyl]-6-[(3S)-3-methylmorpholin-4-yl]pyrimidin-2-yl]phenyl]-3-cyclopropylthiourea]	5.49
C[C@H]1COCCN1c1cc(C2(S(=O)(=O)c3ccccc3)CC2)nc(-c2ccc(NC(=S)Nc3cnn(C)c3)cc2)n1 [Example 37w, 1-[4-[4-[1-(benzenesulfonyl)cyclopropyl]-6-[(3S)-3-methylmorpholin-4-yl]pyrimidin-2-yl]phenyl]-3-(1-methylpyrazol-4-yl)thiourea]	1.37
C[C@H]1COCCN1c1cc(C2(S(=O)(=O)c3ccccc3)CC2)nc(-c2ccc(NC(=S)NCCCO)cc2)n1 [Example 37x, 1-[4-[4-[1-(benzenesulfonyl)cyclopropyl]-6-[(3S)-3-methylmorpholin-4-yl]pyrimidin-2-yl]phenyl]-3-(3-hydroxypropyl)thiourea]	9.44
CCNC(=S)Nc1ccc(-c2nc(N3CCOC[C@@H]3C)cc(C3(S(=O)(=O)c4ccccc4)CC3)n2)cc1 [Example 37z, 3-[4-[4-[1-(benzenesulfonyl)cyclopropyl]-6-[(3S)-3-methylmorpholin-4-yl]pyrimidin-2-yl]phenyl]-1-ethylthiourea]	4.81
Cc1nnc(S(=O)(=O)C2(c3cc(N4CCOC[C@@H]4C)nc(-c4ccc(NC(=O)NC5CC5)cc4)n3)CC2)s1 [Example 38, 3-Cyclopropyl-1-[4-[4-[(3S)-3-methylmorpholin-4-yl]-6-[1-[(5-methyl-1,3,4-thiadiazol-2-yl)sulfonyl]cyclopropyl]pyrimidin-2-yl]phenyl]urea]	1.31
C[C@H]1COCCN1c1cc(C2(S(=O)(=O)c3nccs3)CC2)nc(-c2ccc(NC(=O)NC3CC3)cc2)n1 [Example 39, 3-Cyclopropyl-1-[4-[4-[(3S)-3-methylmorpholin-4-yl]-6-[1-(1,3-thiazol-2-ylsulfonyl)cyclopropyl]pyrimidin-2-yl]phenyl]urea]	0.351
C[C@H]1COCCN1c1cc(C2(S(C)(=O)=O)CC2)nc(-c2ccc(NC(=S)NCCC#N)cc2)n1 [Example 41, 3-(2-Cyanoethyl)-1-[4-[4-[(3S)-3-methylmorpholin-4-yl]-6-(1-methylsulfonylcyclopropyl)pyrimidin-2-yl]phenyl]thiourea]	30.8
Cc1csc(S(=O)(=O)C2(c3cc(N4CCOCC4)nc(-c4ccc(NC(=O)NCCO)cc4)n3)CC2)n1 [Example 42a, 3-(2-hydroxyethyl)-1-[4-[4-[1-[(4-methyl-1,3-thiazol-2-yl)sulfonyl]cyclopropyl]-6-morpholin-4-ylpyrimidin-2-yl]phenyl]urea]	2.61
Cc1csc(S(=O)(=O)C2(c3cc(N4CCOCC4)nc(-c4ccc(NC(=O)Nc5cnn(C)c5)cc4)n3)CC2)n1 [Example 42b, 3-(1-methylpyrazol-4-yl)-1-[4-[4-[1-[(4-methyl-1,3-thiazol-2-yl)sulfonyl]cyclopropyl]-6-morpholin-4-ylpyrimidin-2-yl]phenyl]urea]	5.35
Cc1csc(S(=O)(=O)C2(c3cc(N4CCOCC4)nc(-c4ccc(NC(=O)NC5CCC5)cc4)n3)CC2)n1 [Example 42e, 3-cyclobutyl-1-[4-[4-[1-[(4-methyl-1,3-thiazol-2-yl)sulfonyl]cyclopropyl]-6-morpholin-4-ylpyrimidin-2-yl]phenyl]urea]	2.57
Cc1csc(S(=O)(=O)C2(c3cc(N4CCOCC4)nc(-c4ccc(NC(=O)NCCC#N)cc4)n3)CC2)n1 [Example 42f, 3-(2-cyanoethyl)-1-[4-[4-[1-[(4-methyl-1,3-thiazol-2-yl)sulfonyl]cyclopropyl]-6-morpholin-4-ylpyrimidin-2-yl]phenyl]urea]	2.64

More lines, now with the values ahead:

IC50 [nM]	Compound
17.9	CNC(=S)Nc1ccc(-c2nc(N3CCOC[C@@H]3C)cc(C3(S(=O)(=O)CCCO)CC3)n2)cc1 [Example 37g, 1-[4-[4-[1-(3-hydroxypropylsulfonyl)cyclopro-pyl]-6-[(3S)-3-methylmorpholin-4-yl]pyrimidin-2-yl]phenyl]-3-methylthiourea]
39.3	CCCNC(=S)Nc1ccc(-c2nc(N3CCOC[C@@H]3C)cc(C3(S(C)(=O)=O)CC3)n2)cc1 [Example 37n, 1-[4-[4-[(3S)-3-methylmorpholin-4-yl]-6-(1-methylsulfonylcyclopropyl)pyri-midin-2-yl]phenyl]-3-propylthiourea]
33	C[C@H]1COCCN1c1cc(C2(S(C)(=O)=O)CC2)nc(-c2ccc(NC(=S)Nc3cnn(C)c3)cc2)n1 [Example 37o, 1-[4-[4-[(3S)-3-methylmorpholin-4-yl]-6-(1-methylsulfonylcyclopropyl)pyri-midin-2-yl]phenyl]-3-(1-methylpyrazol-4-yl)thiourea]
5.34	CNC(=S)Nc1ccc(-c2nc(N3CCOC[C@@H]3C)cc(C3(S(=O)(=O)c4nc(C)cs4)CC3)n2)cc1 [Example 37p, 3-methyl-1-[4-[4-[(3S)-3-methylmorpholin-4-yl]-6-[1-[(4-methyl-1,3-thiazol-2-yl)sulfonyl]cyclopropyl]pyri-midin-2-yl]phenyl]thiourea]
2.94	Cc1csc(S(=O)(=O)C2(c3cc(N4CCOC[C@@H]4C)nc(-c4ccc(NC(=S)NC5CC5)cc4)n3)CC2)n1 [Example 37q, 3-cyclopropyl-1-[4-[4-[(3S)-3-methylmorpholin-4-yl]-6-[1-[(4-methyl-1,3-thiazol-2-yl)sulfonyl]cyclopropyl]pyri-midin-2-yl]phenyl]thiourea]
1.62	Cc1csc(S(=O)(=O)C2(c3cc(N4CCOC[C@@H]4C)nc(-c4ccc(NC(=S)NCCO)cc4)n3)CC2)n1 [Example 37r, 3-(2-hydroxyethyl)-1-[4-[4-[(3S)-3-methylmorpholin-4-yl]-6-[1-[(4-methyl-1,3-thiazol-2-yl)sulfonyl]cyclopropyl]pyri-midin-2-yl]phenyl]thiourea]
7.56	CNC(=S)Nc1ccc(-c2nc(N3CCOC[C@@H]3C)cc(C3(S(=O)(=O)c4ccc(F)cc4)CC3)n2)cc1 [Example 37s, 1-[4-[4-[1-(4-fluorophenyl)sulfonylcyclopropyl]-6-[(3S)-3-methylmorpholin-4-yl]pyrimidin-2-yl]phenyl]-3-methylthiourea]
0.918	CNC(=O)Nc1ccc(-c2nc(N3CCOC[C@@H]3C)cc(C3(S(=O)(=O)c4nnc(C)s4)CC3)n2)cc1 [Example 38a]
0.502	CNC(=O)Nc1ccc(-c2nc(N3CCOC[C@@H]3C)cc(C3(S(=O)(=O)c4nccs4)CC3)n2)cc1 [Example 39a]
4.36	CNC(=O)Nc1ccc(-c2nc(N3CCOC[C@@H]3C)cc(C3(S(=O)(=O)c4ncc[nH]4)CC3)n2)cc1 [Example 40]
0.705	Cc1csc(S(=O)(=O)C2(c3cc(N4CCOCC4)nc(-c4ccc(NC(=O)NC5CC5)cc4)n3)CC2)n1 [Example 42, 3-Cyclopropyl-1-[4-[4-[1-[(4-methyl-1,3-thiazol-2-yl)sulfonyl]cyclopropyl]-6-morpholin-4-ylpyrimidin-2-yl]phenyl]urea]
3.6	CNC(=O)Nc1ccc(-c2nc(N3CCOCC3)cc(C3(S(=O)(=O)c4nc(C)cs4)CC3)n2)cc1 [Example 42c, 3-methyl-1-[4-[4-[1-[(4-methyl-1,3-thiazol-2-yl)sulfonyl]cyclopropyl]-6-morpholin-4-ylpyrimidin-2-yl]phenyl]urea]
